Experimental data taken from ChEMBL document CHEMBL1201862, “PubChem BioAssay data set” (2004).
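Following 48 hours of exposure in 96-well plates, responses at five concentrations were used to interpolate endpoints linearly. GI50 = concentration required for 50% inhibition of growth.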 Active and inactive are the calls of the source. Cut-off read from the data, not from the text of the source: active = GI50 up to about 1.1 µM and inactive = higher.

Columns and labels:
Test in all cases: DTP human tumour cell line panel, 48 h
MDA-MB-435 = system: MDA-MB-435
HOP-62 = system: HOP-62
SF-268 = system: SF-268
COLO 205 = system: COLO 205
SNB-75 = system: SNB-75
SN12C = system: SN12C
Hs-578T = system: Hs-578T
CCRF-CEM = system: CCRF-CEM
HL-60 = system: HL-60
MDA-MB-231 = system: MDA-MB-231
SW-620 = system: SW-620
A498 = system: A498
RXF 393 = system: RXF 393
MCF7 = system: MCF7
SNB-19 = system: SNB-19
RPMI-8226 = system: RPMI-8226
SF-539 = system: SF-539
SF-295 = system: SF-295
HCT-15 = system: HCT-15
BT-549 = system: BT-549

Compound | GI50 (MDA-MB-435) | GI50 (HOP-62) | GI50 (SF-268) | GI50 (COLO 205) | GI50 (SNB-75) | GI50 (SN12C) | GI50 (Hs-578T) | GI50 (CCRF-CEM) | GI50 (HL-60) | GI50 (MDA-MB-231) | GI50 (SW-620) | GI50 (A498) | GI50 (RXF 393) | GI50 (MCF7) | GI50 (SNB-19) | GI50 (RPMI-8226) | GI50 (SF-539) | GI50 (SF-295) | GI50 (HCT-15) [µM] | GI50 (BT-549)
CN(N=O)N1C(=O)SCC(c2ccccc2)(c2ccccc2)C1=O | 24.3 µM (inactive) | 65.9 µM (inactive) | 32.1 µM (inactive) | 25.3 µM (inactive) | 25.6 µM (inactive) | 31.6 µM (inactive) | 56.8 µM (inactive) | 31.1 µM (inactive) | 46.1 µM (inactive) | 37.3 µM (inactive) | 38.7 µM (inactive) | > 100 µM (inactive) | 22.3 µM (inactive) | 20.9 µM (inactive) | 57.9 µM (inactive) | 25.8 µM (inactive) | 21.9 µM (inactive) | 35.6 µM (inactive) | 41.7 | –
Cc1ccc(S(=O)(=O)N/N=C2/C3C(CC2(C)C)C2(C)CCCC3(C)C2O)cc1 (stereo unspecified) | > 10 µM (inactive) | 30.1 µM (inactive) | 30.5 µM (inactive) | 16 µM (inactive) | 17.7 µM (inactive) | 19.9 µM (inactive) | 19 µM (inactive) | 16.8 µM (inactive) | 26.1 µM (inactive) | – | > 10 µM (inactive) | – | – | 17.5 µM (inactive) | 29.4 µM (inactive) | 35.6 µM (inactive) | – | 15.4 µM (inactive) | 23.2 | 14.3 µM (inactive)
CC(=O)OCC1OC(n2c3c(c(-c4ccc(Cl)cc4)c(C#N)c2=S)CCCC3)C(OC(C)=O)C(OC(C)=O)C1OC(C)=O (stereo unspecified) | 67.3 µM (inactive) | 97.3 µM (inactive) | 96.6 µM (inactive) | 35.2 µM (inactive) | 15.3 µM (inactive) | 88.5 µM (inactive) | – | 40.7 µM (inactive) | 64.9 µM (inactive) | > 100 µM (inactive) | – | 35.2 µM (inactive) | 23.5 µM (inactive) | > 100 µM (inactive) | 41.8 µM (inactive) | – | 74.5 µM (inactive) | 37.9 µM (inactive) | 61.2 | –
CCCCCCCCOCC1S(=O)(=O)OCCOS1(=O)=O | > 100 µM (inactive) | > 100 µM (inactive) | > 100 µM (inactive) | > 100 µM (inactive) | > 100 µM (inactive) | > 100 µM (inactive) | > 100 µM (inactive) | > 100 µM (inactive) | > 100 µM (inactive) | > 100 µM (inactive) | > 100 µM (inactive) | > 100 µM (inactive) | > 100 µM (inactive) | – | > 100 µM (inactive) | > 100 µM (inactive) | > 100 µM (inactive) | > 100 µM (inactive) | > 100 | –
COc1cccc(CCCNC(=O)Cc2cc(OC)c(OC)cc2CO)c1 | > 100 µM (inactive) | > 100 µM (inactive) | – | > 100 µM (inactive) | > 100 µM (inactive) | > 100 µM (inactive) | > 100 µM (inactive) | > 100 µM (inactive) | > 100 µM (inactive) | > 100 µM (inactive) | > 100 µM (inactive) | > 100 µM (inactive) | – | – | > 100 µM (inactive) | – | – | – | > 100 | > 100 µM (inactive)
OC1(CCc2ccccc2)COC(C(F)(F)F)(C(F)(F)F)C1 (stereo unspecified) | > 100 µM (inactive) | > 100 µM (inactive) | > 100 µM (inactive) | > 100 µM (inactive) | > 100 µM (inactive) | > 100 µM (inactive) | > 100 µM (inactive) | > 100 µM (inactive) | > 100 µM (inactive) | > 100 µM (inactive) | > 100 µM (inactive) | > 100 µM (inactive) | > 100 µM (inactive) | > 100 µM (inactive) | > 100 µM (inactive) | 97.3 µM (inactive) | > 100 µM (inactive) | > 100 µM (inactive) | > 100 | –
COc1ccc(/C=C2\Sc3nnc(-c4ccccc4)n3N=C2c2cc(F)c(Cl)cc2Cl)cc1OC | 13.8 µM (inactive) | > 100 µM (inactive) | 21 µM (inactive) | – | – | – | 20.6 µM (inactive) | 4.98 µM (inactive) | 0.573 µM (active) | 59.2 µM (inactive) | 14.2 µM (inactive) | > 100 µM (inactive) | 11.7 µM (inactive) | 19.8 µM (inactive) | – | 6.04 µM (inactive) | > 100 µM (inactive) | > 100 µM (inactive) | 19.1 | –
CCNC1CC(C(C)(C)NCC)CC=C1C (stereo unspecified) | > 100 µM (inactive) | > 100 µM (inactive) | > 100 µM (inactive) | > 100 µM (inactive) | > 100 µM (inactive) | > 100 µM (inactive) | – | > 100 µM (inactive) | > 100 µM (inactive) | > 100 µM (inactive) | > 100 µM (inactive) | – | – | > 100 µM (inactive) | > 100 µM (inactive) | – | > 100 µM (inactive) | > 100 µM (inactive) | > 100 | > 100 µM (inactive)
Clc1ccc(/N=C/c2cc3cc(Br)ccc3nc2Cl)cc1 | 8.71 µM (inactive) | – | 17 µM (inactive) | > 50 µM (inactive) | > 50 µM (inactive) | > 50 µM (inactive) | – | 9.08 µM (inactive) | 9.82 µM (inactive) | – | 14.2 µM (inactive) | – | > 50 µM (inactive) | – | – | 13.2 µM (inactive) | 21.4 µM (inactive) | – | 14.2 | > 50 µM (inactive)
COc1ccc(CCc2ccc(O)c(C(=O)O)c2)cc1OC | > 100 µM (inactive) | > 100 µM (inactive) | > 100 µM (inactive) | > 100 µM (inactive) | 79.6 µM (inactive) | > 100 µM (inactive) | > 100 µM (inactive) | 50.7 µM (inactive) | > 100 µM (inactive) | 57.8 µM (inactive) | > 10 µM (inactive) | – | 63.5 µM (inactive) | > 100 µM (inactive) | > 100 µM (inactive) | > 100 µM (inactive) | 37.2 µM (inactive) | > 100 µM (inactive) | 84.1 | –
COC(=O)C(C)(C)[C@@H]1OC(=O)N(S(=O)(=O)c2c(C)cc(C)cc2C)[C@H]1C(C)C | > 100 µM (inactive) | > 100 µM (inactive) | > 100 µM (inactive) | 27 µM (inactive) | 41 µM (inactive) | > 100 µM (inactive) | 43 µM (inactive) | 75.9 µM (inactive) | 23.6 µM (inactive) | > 100 µM (inactive) | 82.2 µM (inactive) | – | > 100 µM (inactive) | 75.9 µM (inactive) | > 100 µM (inactive) | > 100 µM (inactive) | > 100 µM (inactive) | > 100 µM (inactive) | > 100 | –
CC(=O)c1ccc2c(c1)CC1(C2)Cc2cc3c(cc2C1=O)CCC3 (stereo unspecified) | 17 µM (inactive) | 28 µM (inactive) | 28.9 µM (inactive) | 14.9 µM (inactive) | 15.6 µM (inactive) | 16.7 µM (inactive) | 27.6 µM (inactive) | 13.3 µM (inactive) | 14.3 µM (inactive) | 20.6 µM (inactive) | 32.6 µM (inactive) | 19.5 µM (inactive) | 20.8 µM (inactive) | 20.8 µM (inactive) | 58.9 µM (inactive) | 11.1 µM (inactive) | 29.9 µM (inactive) | 21.8 µM (inactive) | 29 | –
COC(=O)/C=C\COCC1C2CCC(=O)C21 (stereo unspecified) | > 25 µM (inactive) | > 25 µM (inactive) | 4.68 µM (inactive) | 14 µM (inactive) | > 25 µM (inactive) | > 25 µM (inactive) | – | 5.66 µM (inactive) | – | > 25 µM (inactive) | 7.93 µM (inactive) | – | 9.62 µM (inactive) | 10.3 µM (inactive) | > 25 µM (inactive) | 11 µM (inactive) | 7.16 µM (inactive) | > 25 µM (inactive) | 9.57 | 11 µM (inactive)
O=C1Oc2ccccc2C(=O)/C1=C\NC(=S)c1ccncc1 | 98.4 µM (inactive) | 84.1 µM (inactive) | – | > 100 µM (inactive) | 99.3 µM (inactive) | > 100 µM (inactive) | – | – | 3.35 µM (inactive) | > 100 µM (inactive) | 11 µM (inactive) | – | – | > 100 µM (inactive) | 96.8 µM (inactive) | – | > 100 µM (inactive) | > 100 µM (inactive) | 69.3 | 31.6 µM (inactive)
CC(C)(C)[C@H]1NC(=O)CN1C(=O)OCc1ccccc1 | > 100 µM (inactive) | > 100 µM (inactive) | 8.07 µM (inactive) | > 100 µM (inactive) | > 100 µM (inactive) | > 100 µM (inactive) | – | > 100 µM (inactive) | > 100 µM (inactive) | 35.5 µM (inactive) | > 100 µM (inactive) | 10.7 µM (inactive) | > 100 µM (inactive) | > 100 µM (inactive) | > 100 µM (inactive) | 87.7 µM (inactive) | > 100 µM (inactive) | 45.6 µM (inactive) | > 100 | > 100 µM (inactive)
O=C1CCCCC/C1=C\c1cccc(Cl)c1 | 31 µM (inactive) | > 100 µM (inactive) | 22 µM (inactive) | 35.3 µM (inactive) | 48.5 µM (inactive) | 93.8 µM (inactive) | 35.9 µM (inactive) | 4.06 µM (inactive) | – | > 100 µM (inactive) | 20.8 µM (inactive) | > 100 µM (inactive) | – | – | > 100 µM (inactive) | 20 µM (inactive) | – | 20 µM (inactive) | 32.2 | 43.2 µM (inactive)
O=c1oc(-c2ccc(O)c(O)c2)cc2cccc(O)c12 [THUNBERGINOL A] | 24.2 µM (inactive) | 15.2 µM (inactive) | 19.8 µM (inactive) | 10.5 µM (inactive) | 23.1 µM (inactive) | 14.4 µM (inactive) | 21.2 µM (inactive) | 0.998 µM (active) | 17.1 µM (inactive) | – | 21.1 µM (inactive) | 19.9 µM (inactive) | 18.9 µM (inactive) | 9.57 µM (inactive) | 19.1 µM (inactive) | 10.5 µM (inactive) | 23.9 µM (inactive) | 27.5 µM (inactive) | 4.99 | 15.6 µM (inactive)
